# Assay results: US8193364B2, “Insecticidal N-substituted (6-haloalkylpyridin-3-yl)-alkyl sulfoximines” (Dow AgroSciences, LLC., priority 2006, dated 2012)
# Test system: Cotton Aphid (Aphis gossypii)
# Assay: Cotton aphid seed coating assay on squash
# Type: in vivo
# Conditions: 10% SC formulation, infested 13 days after planting, counted 3 days later
# Description: Compound 2 was tested in an assay designed to evaluate its systemic activity for control of cotton aphid through seed-coating prior to planting. The crop used in this assay was a hybrid squash (var. Pic-N-Pic). Test compound was formulated in a 10% SC formulation. For the 1 mg/seed treatment, the original 10% formulation was used. For the 0.1 mg/seed treatment, the 10% formulation were diluted 10× with DI water before application. Ten squash seeds were used for each treatment. Seeds were placed on waxed paper and a pipette was used to apply the original or diluted formulations to each seed. One half (5 ul) of the sample was spread onto one side of a seed. Once dried (approximately 1 hr), the seed was flipped over and the 2nd half of sample was spread over the other side. The air-dried, treated seeds were individually planted into 3 inch pots containing metro mix. The pots were placed on a California cart and moved into the greenhouse for sub watering only. Thirteen days later, when the seedlings were approximately 9 inch tall with three expanding true leaves, the 1st leaf was infested with approximately 40 wingless aphids. The infested plants were kept in an environmental holding room (23 C, 40% RH, 16 hr light: 8 hr dark) for three days before the number of live aphids was counted under a microscope. […]
smiles,measurement,setting,value
"CC(c1ccc(C(F)(F)F)nc1)S(C)(=O)=NC#N (centres unmarked) [Compound 2, [1-(6-trifluoromethylpyridin-3-yl)ethyl](methyl)-oxido-λ^4-sulfanylidenecyanamide]","% Control, root uptake systemic, cotton aphid on squash",seed coating 0.1 mg/seed,99.7%
same,"% Control, root uptake systemic, cotton aphid on squash",seed coating 1 mg/seed,100%
